“And” between values parts separate entries of the source, which are not always exact repeats. Equal values may be shown once.
What was measured:
[1] = Dog blood and plasma radioactivity concentrations after single 15 mg/kg oral enteric-coated capsule of [14C]DCDQ; type: in vivo, beagle dogs; settings: 15 mg/kg oral capsule; for Blood concentration of radioactivity, individual dogs 1-4 / Plasma concentration of radioactivity, individual dogs 1-4: 15 mg/kg
Description: About 11 mg of [^14C]DCDQ hydrochloride and 940 mg of non-labeled DCDQ hydrochloride were dissolved in methanol and then evaporated under a nitrogen stream to dryness. Capsules (#2) were filled with accurate amounts (126.7-138.1 mg) of the mixed drug substance according to animal weights. The filled gelatin capsules were then enteric-coated manually. Four male beagle dogs, weighing from 7.6 to 9.8 kg at the time of dosing, were from an in-house colony. Each dog was given one enteric-coated capsule containing [^14C]DCDQ as the hydrochloride salt. Animals were fed two hours prior to dosing and provided Purina dog chow and water ad libitum, and were housed individually in metabolic cages. Blood samples were collected from the jugular vein at 2, 4, 8, 24 and 48 hour after dose administration into tubes containing potassium EDTA as the anticoagulant and then placed on ice. Aliquots of 50 μL were removed for combustion and determination of radioactivity content. Plasma was immediately obtained from the remaining blood by centrifugation at 4° C. Urine samples were collected into tubes on dry ice at intervals of 0-8, 8-24 and 24-48 hour post-dose. Fecal samples were collected at intervals of 0-8, 8-24 and 24-48 hour post-dose at room temperature, and were homogenized. The biological specimens were stored at approximately −70° C. until analysis. Aliquots of 50 μL of plasma and 100-200 μL of urine were analyzed for radioactivity concentrations. Radioactivity determinations of dose, plasma, and urine were made with a Tri-Carb Model 3100 TR/LL LSC using 5-10 mL of Ultima Gold as the scintillation fluid. Feces were weighed and homogenized in water at a volume-to-weight ratio of about 5:1. Aliquots of blood (200 μL) and fecal homogenates (0.25-0.53 gram) were placed on Combusto-cones with Combusto-pads and combusted. A model 307 Tri-Carb sample oxidizer, equipped with an Oximate-80 robotic automatic sampler (Perkin Elmer), was used for combustion of blood and fecal samples. The liberated ^14CO2 was trapped with Carbo-Sorb E carbon dioxide absorber, mixed with PermaFluor® E+ liquid scintillation cocktail, and counted on a Tri-Carb Model 3100 TR/LL liquid scintillation counter (Perkin Elmer). The efficiency of combustion was 98.9%.

[2] = Incubation of [14C]DCDQ in dog fecal homogenate (stability); type: in vitro ADME; settings: 37° C. for 24 hours
Description: An average of 70.2% of the fecal radioactivity was extracted, while an average of 88.2% of the radioactivity was extracted from incubations of [^14C]DCDQ in blank fecal homogenate. In fecal extracts, DCDQ was major radioactive component, representing 54.4% to 96.7% of the total radioactivity. The metabolites detected in feces included hydroxy DCDQ (M2, M3 and M19), a keto DCDQ ([…]) and an uncharacterized peak (M20). The most abundant metabolite […] represented up to 16.4% of the total radioactivity in fecal extracts. The glucuronide of hydroxy DCDQ (M9) and the carbamoyl glucuronide of DCDQ (M6) were not detected in feces.

[3] = dogs; cited from earlier work

c1cc2c3c(c1)[C@H]1CCC[C@H]1CN3CCNC2 [[^14C]DCDQ]
Blood concentration of radioactivity, Mean ± SD ([1]; 2 hr): 262 ± 391 ng equivalents/mL | Plasma concentration of radioactivity, Mean ± SD ([1]; 2 hr): 422 ± 573 ng equivalents/mL | Blood concentration of radioactivity, individual dogs 1-4 ([1]; 2 hr): 161 ng equivalents/mL and 840 ng equivalents/mL and 48.6 ng equivalents/mL and 0.00 ng equivalents/mL | Plasma concentration of radioactivity, individual dogs 1-4 ([1]; 2 hr): 360 ng equivalents/mL and 1250 ng equivalents/mL and 74.4 ng equivalents/mL and 4.13 ng equivalents/mL | Blood concentration of radioactivity, Mean ± SD ([1]; 4 hr): 372 ± 505 ng equivalents/mL | Plasma concentration of radioactivity, Mean ± SD ([1]; 4 hr): 564 ± 748 ng equivalents/mL | Blood concentration of radioactivity, individual dogs 1-4 ([1]; 4 hr): 319 ng equivalents/mL and 1100 ng equivalents/mL and 66.7 ng equivalents/mL and 0.90 ng equivalents/mL | Plasma concentration of radioactivity, individual dogs 1-4 ([1]; 4 hr): 500 ng equivalents/mL and 1640 ng equivalents/mL and 112 ng equivalents/mL and 4.13 ng equivalents/mL | Blood concentration of radioactivity, Mean ± SD ([1]; 8 hr): 347 ± 378 ng equivalents/mL | Plasma concentration of radioactivity, Mean ± SD ([1]; 8 hr): 528 ± 566 ng equivalents/mL | Blood concentration of radioactivity, individual dogs 1-4 ([1]; 8 hr): 331 ng equivalents/mL and 878 ng equivalents/mL and 176 ng equivalents/mL and 5.41 ng equivalents/mL | Plasma concentration of radioactivity, individual dogs 1-4 ([1]; 8 hr): 541 ng equivalents/mL and 1310 ng equivalents/mL and 256 ng equivalents/mL and 4.13 ng equivalents/mL | Blood concentration of radioactivity, Mean ± SD ([1]; 24 hr): 920 ± 341 ng equivalents/mL | Plasma concentration of radioactivity, Mean ± SD ([1]; 24 hr): 1340 ± 508 ng equivalents/mL | Blood concentration of radioactivity, individual dogs 1-4 ([1]; 24 hr): 980 ng equivalents/mL and 782 ng equivalents/mL and 1360 ng equivalents/mL and 556 ng equivalents/mL | Plasma concentration of radioactivity, individual dogs 1-4 ([1]; 24 hr): 1530 ng equivalents/mL and 1110 ng equivalents/mL and 1940 ng equivalents/mL and 769 ng equivalents/mL | Blood concentration of radioactivity, Mean ± SD ([1]; 48 hr): 343 ± 79.9 ng equivalents/mL | Plasma concentration of radioactivity, Mean ± SD ([1]; 48 hr): 507 ± 135 ng equivalents/mL | Blood concentration of radioactivity, individual dogs 1-4 ([1]; 48 hr): 333 ng equivalents/mL and 434 ng equivalents/mL and 364 ng equivalents/mL and 241 ng equivalents/mL | Plasma concentration of radioactivity, individual dogs 1-4 ([1]; 48 hr): 504 ng equivalents/mL and 669 ng equivalents/mL and 517 ng equivalents/mL and 339 ng equivalents/mL | degradation in fecal homogenate [2]: no obvious degradation

c1cc2c3c(c1)[C@H]1CCC[C@H]1CN3CCNC2 [DCDQ, (9aR,12aS)-4,5,6,7,9,9a,10,11,12,12a-decahydro-cyclopenta[c][1,4]diazepine[6,7,1-ij]quinoline, reference compound]
oral bioavailability [3]: approximately 25.4%
